We go through two molecules from paper PMC10055046 (bioRxiv, 2023).

One experiment addresses T1, OCT2CS (Homo sapiens, UniProt O15244).
T1 sequence (O15244 1-555): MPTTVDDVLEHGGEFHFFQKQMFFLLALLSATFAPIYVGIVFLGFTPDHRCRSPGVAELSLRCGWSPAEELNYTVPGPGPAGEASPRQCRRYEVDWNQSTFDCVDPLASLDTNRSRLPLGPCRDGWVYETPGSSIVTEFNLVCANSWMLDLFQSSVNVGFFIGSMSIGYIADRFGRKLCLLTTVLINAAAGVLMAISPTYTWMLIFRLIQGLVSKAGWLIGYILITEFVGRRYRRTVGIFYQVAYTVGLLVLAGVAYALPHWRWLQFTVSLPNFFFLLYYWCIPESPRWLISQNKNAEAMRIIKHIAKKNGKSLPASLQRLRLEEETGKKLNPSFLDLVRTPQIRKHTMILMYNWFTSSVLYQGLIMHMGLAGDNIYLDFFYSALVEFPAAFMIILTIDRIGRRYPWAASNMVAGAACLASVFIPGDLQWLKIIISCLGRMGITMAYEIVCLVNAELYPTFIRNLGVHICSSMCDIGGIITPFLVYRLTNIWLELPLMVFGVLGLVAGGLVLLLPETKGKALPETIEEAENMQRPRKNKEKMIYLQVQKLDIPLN
Briefly: [3H]-verapamil accumulation in OCT2CS-injected oocytes. The class given is cell-based. The following applies: 100 nM [3H]-verapamil, 30 min.

In another experiment the target is T2, WT hOCT1 (Homo sapiens, UniProt O15245).
T2 sequence (O15245 1-554): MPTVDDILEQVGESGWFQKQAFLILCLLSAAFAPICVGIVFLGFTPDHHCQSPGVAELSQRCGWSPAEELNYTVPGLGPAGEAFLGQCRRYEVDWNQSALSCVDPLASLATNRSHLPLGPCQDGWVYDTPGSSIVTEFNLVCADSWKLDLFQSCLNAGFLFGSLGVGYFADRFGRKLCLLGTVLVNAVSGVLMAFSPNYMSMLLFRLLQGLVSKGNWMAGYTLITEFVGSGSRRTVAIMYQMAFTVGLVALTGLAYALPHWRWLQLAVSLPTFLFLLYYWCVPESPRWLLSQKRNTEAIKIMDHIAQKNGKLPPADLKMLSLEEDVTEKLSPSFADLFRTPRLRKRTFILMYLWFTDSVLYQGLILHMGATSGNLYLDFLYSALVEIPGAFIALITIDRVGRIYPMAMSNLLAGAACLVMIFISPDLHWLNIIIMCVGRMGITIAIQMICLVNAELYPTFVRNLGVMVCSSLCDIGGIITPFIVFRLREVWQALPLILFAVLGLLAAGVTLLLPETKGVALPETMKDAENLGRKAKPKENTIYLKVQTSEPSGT
The note with it: cited from earlier work.

On to `COc1ccc(CCN(C)CCCC(C#N)(c2ccc(OC)c(OC)c2)C(C)C)cc1OC` (racemic) [(±)-VPM, verapamil], for which the “Uptake of [3H]-verapamil by OCT2CS” value at OCT2CS (n=3, listed as VPM) is “does not mediate uptake”; on OCT2CS (n=3, listed as verapamil), “does not accumulate”.

As to `CN(C)C(=N)N=C(N)N` [metformin], on WT hOCT1, the “Kt for metformin, WT hOCT1, previous reports” value was 1 to 5 mM.
